Assay results reported in patent US20260207621A1 (Vividion Therapeutics, Inc., priority 2022, published 2026).

Tests used:
Nrf2 = Nrf2 antagonism assay: ARE luciferase reporter in KYSE-70 cells; type: cell-based; conditions: Homo sapiens, KYSE-70, KYSE-70 cells, positive Imax corresponds to Nrf2 antagonism, read-out: KYSE70 Cellular ARE Luciferase Imax (%)
Excerpt: NRF2 binds to a promoter region, antioxidant response element (ARE), to initiate expression of multiple genes. ARE luciferase reporter assays are used to test whether a ligand can activate or repress the expression of target genes using luciferase as a reporter gene.
KYSE-70 is an esophageal squamous cell carcinoma cell line with a Nrf2 mutation at amino acid position W24C. This mutation lowers the affinity between the E3 ligase that includes KEAP1 and Nrf2, resulting in a state in which the synthesis rate of new Nrf2 is faster than the E3's degradation rate of Nrf2, resulting in a “Nrf2 high” state. In KYSE-70 cells, genes are inserted directly after the ARE that trigger the expression of luciferase. Without a NRF2 antagonist in this modified KYSE70 cell line which has an inherently “NRF2 high state”, luciferase is expressed, and a signal is observed.
Nrf2 antagonists bind at C151 of KEAP1 and stabilize the E3 which results in an increased degradation rate of Nrf2. Increased degradation of Nrf2 results in less expression of luciferase, and therefore a less intense signal.
An IC50 is generated from the dose-response curve and an Imax. A positive Imax corresponds to Nrf2 antagonism. Imax >90% correlates with in vivo tumor grown inhibition. Compounds with Imax >50% were included in this description.

KEAP1 C151 = target: T1, KEAP1 C151 (Homo sapiens, UniProt Q14145); assay: Nrf2 TMT measurement: in vitro TE50 for KEAP1 C151 (IA-DTB competition, targeted TMT mass spectrometry) in MDA-MB-468 cell lysate; type: binding; conditions: in vitro target engagement of KEAP1 C151, targeted TMT, read-out: KEAP1_C151 TE50
T1 construct: treating 500 μg of cell lysate generated from MDA-MB-468 breast cancer cells with DMSO or compound; endogenous in cells; host or cells: MDA-MB-468 breast cancer cell lysate
Protocol: In vitro TE50 values for KEAP_C151 were obtained by treating 500 μg of cell lysate generated from MDA-MB-468 breast cancer cells with DMSO or compound for 1 hour at room temperature followed by the addition of 200 μM IA-DTB (in DMSO) for one hour at room temperature. Samples were then precipitated by the addition of 8× ice cold acetonitrile and incubated at −80° C. for two hours. Protein was then pelleted by centrifugation (4,200 RPM, 45 min, 4° C.). The pelleted material was resuspended in 9M Urea, 50 mM ammonium bicarbonate and proteins were reduced and alkylated by the addition of DTT and iodoacetamide (10 and 30 mM, respectively). Following reduction and alkylation, samples were exchanged into 2M urea (Zeba spin desalting plates, Thermo Fisher) and digested with Trypsin. IA-DTB labeled peptides were isolated with streptavidin agarose resin. Enriched peptides were eluted by the addition of 50% acetonitrile (ACN) 0.1% Formic Acid (FA) and dried in a SpeedVac vacuum concentrator.
Dried peptides were resuspended in 0.2 M EPPS pH 8.5 and treated with 6.5 μL of 11-plex tandem mass tag (TMT) (8.3 μg/μL in dry ACN) for 2 hours at room temperature. Reactions were quenched by the addition of 6.5 μL of 5% Hydroxylamine. Samples were then combined and desalted on a Biotage Evolute express ABN plate (600-0010-PX01).
Targeted TMT. Targeted TMT measurements were collected using an Orbitrap LumosTribrid Mass Spectrometer (Thermo Scientific) coupled to an UltiMate 3000 Series Rapid Separation LC system and autosampler (Thermo Scientific Dionex). Peptides were eluted onto a custom C18 capillary analytical column (75-μm inner diameter fused silica, packed with Acclaim PepMap C18 resin (Thermo Scientific)) using an Acclaim PepMap 100 (Thermo 164535) loading column, and separated at a flow rate of 1.0 μl min−1. Data were acquired using a specific MS3-based TMT method targeting the peptide containing KEAP1 C151 (C(+324.2)[…], +3 charge state) where MS2 peptide fragmentation is triggered upon detection of the peptide precursor ion. Subsequent MS3 analysis was then performed using pre-selected peptide fragment ions that were isolated for fragmentation using synchronous precursor selection. RAW files were converted to MZXML format and searched with the SEQUEST algorithm using the MassPike software package. TMT quantitation was performed with a filter requiring at least ten summed signal-to-noise for control channels. Quantified signals were used for dose response curve-fitting and IC50 calculation using R's drc package.

T1 sequence (Q14145 whole entry): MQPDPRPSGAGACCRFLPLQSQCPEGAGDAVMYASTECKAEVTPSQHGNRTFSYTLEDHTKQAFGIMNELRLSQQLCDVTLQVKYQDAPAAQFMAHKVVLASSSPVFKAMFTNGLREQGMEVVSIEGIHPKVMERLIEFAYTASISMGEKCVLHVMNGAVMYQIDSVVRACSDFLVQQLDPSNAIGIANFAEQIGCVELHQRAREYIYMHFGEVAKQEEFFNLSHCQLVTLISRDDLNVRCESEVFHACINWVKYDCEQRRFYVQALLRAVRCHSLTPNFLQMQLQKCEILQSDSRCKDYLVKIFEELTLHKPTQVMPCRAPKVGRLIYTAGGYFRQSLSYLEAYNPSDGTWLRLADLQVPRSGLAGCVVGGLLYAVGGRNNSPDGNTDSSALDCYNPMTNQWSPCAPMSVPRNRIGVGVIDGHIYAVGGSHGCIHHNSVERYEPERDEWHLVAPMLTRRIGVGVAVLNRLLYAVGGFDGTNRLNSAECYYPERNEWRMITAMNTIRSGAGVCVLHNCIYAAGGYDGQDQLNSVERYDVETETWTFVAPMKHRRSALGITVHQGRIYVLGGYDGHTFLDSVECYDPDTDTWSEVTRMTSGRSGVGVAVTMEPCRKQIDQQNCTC

IC50 (KEAP1 C151) [nM] | Compound | Emax (Nrf2) [%]
18 | C=CC(=O)N1CCOCC1c1cc(Cl)cc(-c2cc(C(N)=O)ncn2)c1 (single isomer, unassigned) [Compound 107, 6-(3-(4-acryloylmorpholin-3-yl)-5-chlorophenyl)pyrimidine-4-carboxamide] | 92
67 | C=CC(=O)N1CCOCC1c1cc(Cl)cc(-c2cc[nH]c(=O)c2)c1 (single isomer, unassigned) [Compound 11, 4-(3-(4-acryloylmorpholin-3-yl)-5-chlorophenyl)pyridin-2(1H)-one] | 79
170 | C=CC(=O)N1CCOC[C@H]1c1cc(Cl)cc(-c2nc(C(N)=O)co2)c1 (single isomer, unassigned) [Compound 224] | 90
15.7 | C=CC(=O)N1CCOC[C@H]1c1cc(Cl)cc(-c2ccc(F)c(C(N)=O)c2)c1 (single isomer, unassigned) [Compound 44] | 93
130 | C=CC(=O)N1CCOC[C@H]1c1cc(Cl)cc(N2CCNC(=O)C2)c1 (single isomer, unassigned) [Compound 228] | 79
30.5 | C=CC(=O)N1CCOC[C@H]1c1cc(Cl)cc(-c2ncnc3[nH]cnc23)c1 (single isomer, unassigned) [Compound 58] | 95
470 | C=CC(=O)N1CCOC[C@H]1c1cc(Cl)cc(-c2cnc(=O)n(C)c2)c1 (single isomer, unassigned) [Compound 213] | 75
140 | C=CC(=O)N1CCOC[C@H]1c1cc(Cl)cc(-c2cnc(OC)c(N)n2)c1 (single isomer, unassigned) [Compound 259] | 93
43 | C=CC(=O)N1CC(C)(C)S(=O)(=O)CC1c1cc(Cl)cc(-c2nccc(N)n2)c1 (single isomer, unassigned) [Compound 246, 1-(5-(3-(4-aminopyrimidin-2-yl)-5-chlorophenyl)-2,2-dimethyl-1,1-dioxidothiomorpholino)prop-2-en-1-one] | 90
11 | C=CC(=O)N1[C@H](CC#N)COC[C@H]1c1cc(Cl)cc(-c2cc(N)ncn2)c1 (single isomer, unassigned) [Compound 204] | 86
6.1 | C=CC(=O)N1CCOC[C@H]1c1cc(Cl)cc(-c2ncc(N)c(F)n2)c1 (single isomer, unassigned) [Compound 278] | 87
220 | C=CC(=O)N1CCOC[C@H]1c1cc(Cl)cc(-c2cnc(N)o2)c1 (single isomer, unassigned) [Compound 234] | 89
2720 | C=CC(=O)N1CCOCC12COc1c(-c3ccnc(N)n3)cc(Cl)cc12 (single isomer, unassigned) [Compound 158, 1-(7-(2-aminopyrimidin-4-yl)-5-chloro-2H-spiro[benzofuran-3,3′-morpholino]-4′-yl)prop-2-en-1-one] | 71
63 | C=CC(=O)N1[C@H](C)COC[C@H]1c1cc(Cl)cc(-c2ccnc(C(N)=O)c2)c1 (single isomer, unassigned) [Compound 134] | 85
22 | C=CC(=O)N1C[C@@H](C)N(C(=O)C2CC2)C[C@@H]1c1cc(Cl)cc(-c2ncc(N)cn2)c1 (single isomer, unassigned) [Compound 243] | 88
– | C=CC(=O)N1CCN(S(C)(=O)=O)C[C@H]1c1cc(Cl)cc(-c2nnn(C)n2)c1 (single isomer, unassigned) [Compound 21] | 54

IC50 (KEAP1 C151) [nM] | Compound | Emax (Nrf2) [%]
– | C=CC(=O)N1CCN(C(=O)C2CC2)C[C@H]1c1cc(Cl)cc(-c2nccc(N)n2)c1 (single isomer, unassigned) [Compound 196] | 90
– | C=CC(=O)N1[C@H](C)COC[C@H]1c1cc(Cl)cc(-c2ccc(F)c(C(N)=O)c2)c1 (single isomer, unassigned) [Compound 108] | 70
– | C=CC(=O)N1CCN(C(=O)C2CC2)C[C@H]1c1cc(Cl)cc(-c2ccnc(N)n2)c1 (single isomer, unassigned) [Compound 185] | 94
– | C=CC(=O)N1CCOCC1c1cc(Cl)nc(-c2ccn(C)c(=O)c2)c1 (single isomer, unassigned) [Compound 25, 4-(4-acryloylmorpholin-3-yl)-6-chloro-1′-methyl-[2,4′-bipyridin]-2′(1′H)-one] | 86
– | C=CC(=O)N1CC2(CC2)OCC1c1cc(Cl)cc(-c2cc(N)ncn2)c1 (single isomer, unassigned) [Compound 140, 1-(6-(3-(6-aminopyrimidin-4-yl)-5-chlorophenyl)-4-oxa-7-azaspiro[2.5]octan-7-yl)prop-2-en-1-one] | 72
– | C=CC(=O)N1CCOCC1c1cc(Cl)cc(-c2ccn3cc(C)nc3c2)c1 (single isomer, unassigned) [Compound 57, 1-(3-(3-chloro-5-(2-methylimidazo[1,2-a]pyridin-7-yl)phenyl)morpholino)prop-2-en-1-one] | 84
– | C=CC(=O)N1CC2(CC2)OCC1c1cc(Cl)cc(-c2ncnc(N)n2)c1 (single isomer, unassigned) [Compound 153, 1-(6-(3-(4-amino-1,3,5-triazin-2-y1)-5-chlorophenyl)-4-oxa-7-azaspiro[2.5]octan-7-yl)prop-2-en-1-one] | 94
– | C=CC(=O)N1CCOCC1c1cc(Cl)cc(-c2ccnc(C(N)=O)c2)c1 (single isomer, unassigned) [Compound 75, 4-(3-(4-acryloylmorpholin-3-y1)-5-chlorophenyl)picolinamide] | 92
– | C=CC(=O)N1CCOCC1c1cc(Cl)nc(-c2nnn(C)n2)c1 (single isomer, unassigned) [Compound 23, 1-(3-(2-chloro-6-(2-methyl-2H-tetrazol-5-yl)pyridin-4-yl)morpholino)prop-2-en-1-one] | 55
– | C=CC(=O)N1CCN(C(=O)C2CC2)C[C@H]1c1cc(Cl)cc(-c2ncc(N)cn2)c1 (single isomer, unassigned) [Compound 200] | 91
– | C=CC(=O)N1[C@H](C)COC[C@H]1c1cc(Cl)cc(-c2ncccn2)c1 (single isomer, unassigned) [Compound 20] | 67
– | C=CC(=O)N1CCN(C(=O)C2CC2)C[C@H]1c1cc(Cl)cc(-c2ccc(F)c(C(N)=O)c2)c1 (single isomer, unassigned) [Compound 195] | 90
– | C=CC(=O)N1CCN(C(=O)CC#N)C[C@H]1c1cc(Cl)cc(-c2ccnc(N)n2)c1 (single isomer, unassigned) [Compound 186] | 83
– | C=CC(=O)N1CCOCC12COc1c(-c3ncnc(N)n3)cc(Cl)cc12 (single isomer, unassigned) [Compound 151, 1-(7-(4-amino-1,3,5-triazin-2-yl)-5-chloro-2H-spiro[benzofuran-33′-morpholino]-4′-yl)prop-2-en-1-one] | 81
– | C=CC(=O)N1[C@H](C)COC[C@H]1c1cc(Cl)cc(-c2ccnc(C)n2)c1 (single isomer, unassigned) [Compound 109] | 91
– | C=CC(=O)N1CCOC[C@H]1c1cc(Cl)cc(-c2cnn(C)c2)c1 (single isomer, unassigned) [Compound 116] | 84
